Results reported in patent US8288552B2, “Dihydropyridone amidesas P2X7 modulators” (Roche Palo Alto LLC, priority 2008, dated 2012).

Target: T1, P2X7 (UniProt Q99572)
T1 sequence (Q99572 1-595): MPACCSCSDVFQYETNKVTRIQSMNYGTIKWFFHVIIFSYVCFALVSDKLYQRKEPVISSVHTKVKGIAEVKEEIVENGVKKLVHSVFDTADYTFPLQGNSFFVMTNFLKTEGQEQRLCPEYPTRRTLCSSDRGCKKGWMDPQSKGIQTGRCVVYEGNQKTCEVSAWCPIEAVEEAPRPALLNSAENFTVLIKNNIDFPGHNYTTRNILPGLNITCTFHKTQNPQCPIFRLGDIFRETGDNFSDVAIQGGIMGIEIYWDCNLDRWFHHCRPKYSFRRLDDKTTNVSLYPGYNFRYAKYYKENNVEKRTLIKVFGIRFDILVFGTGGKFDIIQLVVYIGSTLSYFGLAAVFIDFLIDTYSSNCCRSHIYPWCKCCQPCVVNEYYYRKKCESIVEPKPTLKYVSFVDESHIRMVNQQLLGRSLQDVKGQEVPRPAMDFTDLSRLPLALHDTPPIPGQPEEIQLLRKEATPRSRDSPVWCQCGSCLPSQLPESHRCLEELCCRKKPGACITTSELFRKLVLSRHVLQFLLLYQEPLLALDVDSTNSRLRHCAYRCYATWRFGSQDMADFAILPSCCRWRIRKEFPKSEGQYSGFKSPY
Assay: P2X7 pKi of Table 1
Assay type: cell-based
Description: Intracellular Calcium Flux (FLIPR) Assay
Compound and Reagent Preparation
Stock solutions of compounds were prepared from powders as a 10 mM DMSO stock solution. These solutions were stored at RT during the two week period of these experiments to prevent freeze-thaw of the DMSO stocks. The DMSO stocks were added to the appropriate assay buffer at a concentration of 10 μM, and then diluted serially to the final concentrations that were tested. […] The aqueous solutions of compounds as well as ATP (Sigma A7699) and BzATP (Sigma B6396) were prepared fresh for each day of experiment.
1321N1 cells stably expressing the full length human P2X7 gene (1321N1-hP2X7) and HEK293 cells stably expressing the full length rat P2X7 gene (HEK293-rP2X7) were obtained from the Roche Cell Culture Facility. 1321N1-hP2X7 cells were grown in Dulbecco's Modified Eagle's Medium (DMEM) high glucose supplemented with 10% FBS and 250 μg/mL G418. HEK293-rP2X7 cells were grown in DMEM/F-12 supplemented with 10% FBS, 1 mM CaCl2, 2 mM MgCl2, 2 mM L-Glutamine and 500 μg/ml G418. Cells were split such that they never became >70% confluent.
Intracellular Calcium Flux (FLIPR)
On the day prior to the experiment, 1321N1-hP2X7 or HEK293-rP2X7 cells were released into suspension with calcium-free PBS+Versene and washed by centrifugation with calcium-free PBS to remove the Versene. Cells were resuspended in growth medium at a density of 2.5×10^5 cells/mL and seeded into black walled, clear bottom 96 well plates (50,000 cells/well) approximately 18 hr prior to intracellular calcium flux experiments.
On the day of the experiment, plates were washed with FLIPR buffer (calcium- and magnesium-free Hank's Balanced Salt Solution (HBSS) supplemented with 10 mM Hepes, 2.5 mM probenecid and 2 mM calcium chloride) using a BIO-TEK 96 channel plate washer and incubated with […] fluo-3 dye at 37° C. for one hr. The dye was then removed by plate washing and the cells were allowed to equilibrate for 20 min at room temperature with antagonist or vehicle (FLIPR buffer). Agonist (100 μM BzATP final concentration for hP2X7; 5 μM BzATP final concentration or rP2X7) was added online with the FLIPR and fluorescence measurements made at 1 sec intervals for 60 sec followed by 3 sec intervals for a further 4 min (5 min total). A final addition of 5 μM ionomycin was made and the maximal BzATP-evoked fluorescence normalized to the maximal ionomycin-evoked fluorescence.

Q: Which pKi does the source give for `COc1cc(Br)c(NC(=O)C2=CNC(=O)CC2c2ccccc2)cc1OC` (centres unmarked) [Compound 1, 6-Oxo-4-phenyl-1,4,5,6-tetrahydro-pyridine-3-carboxylic acid(2-bromo-4,5-dimethoxy-phenyl)-amide] here?
A: Its pKi is 7.4925.

Q: `COc1cc(NC(=O)C2=CNC(=O)CC2c2ccccc2)c(Br)cc1C` (centres unmarked) [Compound 2, 6-Oxo-4-phenyl-1,4,5,6-tetrahydro-pyridine-3-carboxylic acid(2-bromo-5-methoxy-4-methyl-phenyl)-amide] was tested. Which pKi did it give?
A: The pKi was 6.595.

Q: For `COc1cc(NC(=O)C2=CNC(=O)CC2c2ccccc2)c(Br)cc1Cl` (centres unmarked) [Compound 3, 6-Oxo-4-phenyl-1,4,5,6-tetrahydro-pyridine-3-carboxylic acid(2-bromo-4-chloro-5-methoxy-phenyl)-], which pKi is on record?
A: The pKi was 5.95.

Q: Which pKi does the source give for `COc1cc(NC(=O)C2=CNC(=O)CC2c2ccc(F)cc2)c(Br)cc1C` (centres unmarked) [Compound 4, 4-(4-Fluoro-phenyl)-6-oxo-1,4,5,6-tetrahydro-pyridine-3-carboxylic acid(2-bromo-5-methoxy-4-methyl-phenyl)-amide] here?
A: Its pKi is 6.6.

Q: How did the pKi turn out when `COc1cc(NC(=O)C2=CNC(=O)CC2c2cccc(F)c2)c(Br)cc1C` (centres unmarked) [Compound 5, 4-(3-Fluoro-phenyl)-6-oxo-1,4,5,6-tetrahydro-pyridine-3-carboxylic acid(2-bromo-5-methoxy-4-methyl-phenyl)-amide] was run?
A: Its pKi is 6.726.

Q: How did the pKi turn out when `COc1cc(NC(=O)C2=CNC(=O)CC2c2ccc(F)cc2)c(Br)cc1Cl` (centres unmarked) [Compound 6, 4-(4-Fluoro-phenyl)-6-oxo-1,4,5,6-tetrahydro-pyridine-3-carboxylic acid(2-bromo-4-chloro-5-methoxy-phenyl)-amide] was run?
A: The pKi was 6.166.

Q: `COc1cc(Br)c(NC(=O)C2=CNC(=O)CC2c2ccc(F)cc2)cc1OC` (centres unmarked) [Compound 7, 4-(4-Fluoro-phenyl)-6-oxo-1,4,5,6-tetrahydro-pyridine-3-carboxylic acid(2-bromo-4,5-dimethoxy-phenyl)-amide] was tested. Which pKi did it give?
A: The pKi was 7.463.

Q: Which pKi does the source give for `COc1cc(NC(=O)C2=CNC(=O)CC2c2cccc(F)c2)c(Br)cc1Cl` (centres unmarked) [Compound 9, 4-(3-Fluoro-phenyl)-6-oxo-1,4,5,6-tetrahydro-pyridine-3-carboxylic acid(2-bromo-4-chloro-5-methoxy-phenyl)-amide] here?
A: The pKi was 6.766.

Q: Which pKi does the source give for `COc1cc(NC(=O)C2=CNC(=O)CC2c2ccc(F)cc2)ccc1Cl` (centres unmarked) [Compound 10, 4-(4-Fluoro-phenyl)-6-oxo-1,4,5,6-tetrahydro-pyridine-3-carboxylic acid(4-chloro-3-methoxy-phenyl)-amide] here?
A: The pKi was 5.543.

Q: With `COc1cc(NC(=O)C2=CNC(=O)CC2c2ccc(F)cc2)ccc1C` (centres unmarked) [Compound 11, 4-(4-Fluoro-phenyl)-6-oxo-1,4,5,6-tetrahydro-pyridine-3 carboxylic acid(3-methoxy-4-methyl-phenyl)-amide] as the compound, how does the pKi read?
A: Its pKi is 6.03.

Q: How did the pKi turn out when `COc1cc(Br)c(NC(=O)C2=CNC(=O)C[C@@H]2c2ccccc2)cc1OC` [Compound 12, (R)-6-Oxo-4-phenyl-1,4,5,6-tetrahydro-pyridine-3-carboxylic acid(2-bromo-4,5-dimethoxy-phenyl)-amide] was run?
A: Its pKi is 6.155.

Q: `COc1cc(Br)c(NC(=O)C2=CNC(=O)C[C@H]2c2ccccc2)cc1OC` [Compound 13, (S)-6-Oxo-4-phenyl-1,4,5,6-tetrahydro-pyridine-3-carboxylic acid(2-bromo-4,5-dimethoxy-phenyl)-amide] was tested. Which pKi did it give?
A: The pKi was 7.455.

Q: `Cc1cc(C)cc(NC(=O)C2=CNC(=O)CC2c2ccc(F)cc2)c1` (centres unmarked) [Compound 14, 4-(4-Fluoro-phenyl)-6-oxo-1,4,5,6-tetrahydro-pyridine-3-carboxylic acid(3,5-dimethyl-phenyl)-amide] was tested. Which pKi did it give?
A: Its pKi is 6.535.

Q: How did the pKi turn out when `COC(=O)c1ccc(C)c(NC(=O)C2=CNC(=O)CC2c2cccc(F)c2)c1` (centres unmarked) [Compound 16, 3-{[4-(3-Fluoro-phenyl)-6-oxo-1,4,5,6-tetrahydro-pyridine-3-carbonyl]-amino}-4-methyl-benzoic acid methyl ester] was run?
A: Its pKi is 6.43.

Q: `COc1cc(Br)c(NC(=O)C2=CNC(=O)CC2c2cccc(F)c2)cc1OC` (centres unmarked) [Compound 17, 4-(3-Fluoro-phenyl)-6-oxo-1,4,5,6-tetrahydro-pyridine-3-carboxylic acid(2-bromo-4,5-dimethoxy-phenyl)-amide] was tested. Which pKi did it give?
A: The pKi was 6.77.

Q: How did the pKi turn out when `COc1ccc(Br)c(NC(=O)C2=CNC(=O)CC2c2ccc(F)cc2)c1` (centres unmarked) [Compound 18, 4-(4-Fluoro-phenyl)-6-oxo-1,4,5,6-tetrahydro-pyridine-3-carboxylic acid(2-bromo-5-methoxy-phenyl)-amide] was run?
A: Its pKi is 6.08.

Q: For `COc1ccc(Br)c(NC(=O)C2=CNC(=O)CC2c2cccc(F)c2)c1` (centres unmarked) [Compound 19, 4-(3-Fluoro-phenyl)-6-oxo-1,4,5,6-tetrahydro-pyridine-3-carboxylic acid(2-bromo-5-methoxy-phenyl)-amide], which pKi is on record?
A: The pKi was 6.19.

Q: For `COc1ccc(C)c(NC(=O)C2=CNC(=O)CC2c2cccc(F)c2)c1` (centres unmarked) [Compound 20, 4-(3-Fluoro-phenyl)-6-oxo-1,4,5,6-tetrahydro-pyridine-3-carboxylic acid(5-methoxy-2-methyl-phenyl)-amide], which pKi is on record?
A: The pKi was 6.815.

Q: `CC(=O)Nc1ccc(Cl)c(NC(=O)C2=CNC(=O)CC2c2cccc(F)c2)c1` (centres unmarked) [Compound 21, 4-(3-Fluoro-phenyl)-6-oxo-1,4,5,6-tetrahydro-pyridine-3-carboxylic acid(5-acetylamino-2-chloro-phenyl)-amide] was tested. Which pKi did it give?
A: The pKi was 6.02.

Q: For `COc1cc(NC(=O)C2=CNC(=O)CC2c2cccc(F)c2)c(Cl)cc1Cl` (centres unmarked) [Compound 22, 4-(3-Fluoro-phenyl)-6-oxo-1,4,5,6-tetrahydro-pyridine-3-carboxylic acid(2,4-dichloro-5-methoxy-phenyl)-amide], which pKi is on record?
A: Its pKi is 6.12.

Q: How did the pKi turn out when `COC(=O)c1cc(Br)c(NC(=O)C2=CNC(=O)CC2c2cccc(F)c2)cc1OC` (centres unmarked) [Compound 23, 5-Bromo-4-{[4-(3-fluoro-phenyl)-6-oxo-1,4,5,6-tetrahydro-pyridine-3-carbonyl]-amino}-2-methoxy-benzoic acid methyl ester] was run?
A: Its pKi is 5.92.

Q: Which pKi does the source give for `COc1cc(C)c(NC(=O)C2=CNC(=O)CC2c2cccc(F)c2)cc1OC` (centres unmarked) [Compound 24, 4-(3-Fluoro-phenyl)-6-oxo-1,4,5,6-tetrahydro-pyridine-3-carboxylic acid(4,5-dimethoxy-2-methyl-phenyl)-amide] here?
A: Its pKi is 7.69.

Q: Which pKi does the source give for `O=C1CC(c2cccc(F)c2)C(C(=O)Nc2cc(O)ccc2Cl)=CN1` (centres unmarked) [Compound 25, 4-(3-Fluoro-phenyl)-6-oxo-1,4,5,6-tetrahydro-pyridine-3-carboxylic acid(2-chloro-5-hydroxy-phenyl)-amide] here?
A: Its pKi is 5.395.

Q: How did the pKi turn out when `Cc1ccc(Cl)c(NC(=O)C2=CNC(=O)CC2c2cccc(F)c2)c1F` (centres unmarked) [Compound 26, 4-(3-Fluoro-phenyl)-6-oxo-1,4,5,6-tetrahydro-pyridine-3-carboxylic acid(6-chloro-2-fluoro-3-methyl-phenyl)-amide] was run?
A: The pKi was 5.73.

Q: For `O=C1CC(c2cccc(F)c2)C(C(=O)Nc2cc(Cl)ccc2OC(F)F)=CN1` (centres unmarked) [Compound 27, 4-(3-Fluoro-phenyl)-6-oxo-1,4,5,6-tetrahydro-pyridine-3-carboxylic acid(5-chloro-2-difluoromethoxy-phenyl)-amide], which pKi is on record?
A: The pKi was 5.18.

Q: With `O=C1CC(c2cccc(F)c2)C(C(=O)Nc2c(F)cc(F)cc2Cl)=CN1` (centres unmarked) [Compound 28, 4-(3-Fluoro-phenyl)-6-oxo-1,4,5,6-tetrahydro-pyridine-3-carboxylic acid(2-chloro-4,6-difluoro-phenyl)-amide] as the compound, how does the pKi read?
A: Its pKi is 5.215.
